From patent US12673944B2, “Compounds having inhibitory activity against glucosylceramide synthase or pharmaceutically acceptable salt thereof, processes for preparing the same, and pharmaceutical compositions comprising the same” (YUHAN CORPORATION, priority 2019, dated 2026) come the findings set out here.

For experiment [1], the target named is T1, glucosylceramide synthase (GCS) (Homo sapiens, UniProt Q16739).
T1 construct: The obtained supernatant was used; host or cells: A549 cells (lysate supernatant after sonication)
T1 sequence (Q16739 1-394): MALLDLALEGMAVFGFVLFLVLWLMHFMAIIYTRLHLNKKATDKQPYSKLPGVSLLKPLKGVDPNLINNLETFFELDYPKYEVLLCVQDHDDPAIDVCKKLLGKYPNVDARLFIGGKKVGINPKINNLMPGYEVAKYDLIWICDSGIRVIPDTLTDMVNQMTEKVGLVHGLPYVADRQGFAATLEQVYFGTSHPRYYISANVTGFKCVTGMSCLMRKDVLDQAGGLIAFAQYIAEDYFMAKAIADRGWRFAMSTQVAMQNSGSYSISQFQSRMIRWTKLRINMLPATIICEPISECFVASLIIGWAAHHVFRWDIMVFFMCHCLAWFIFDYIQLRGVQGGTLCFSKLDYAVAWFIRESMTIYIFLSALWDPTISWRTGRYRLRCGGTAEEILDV
Description: GCS enzyme inhibition assay (A549 cell lysate, NBD C6-ceramide, HPLC fluorescence). It counts as biochemical. The conditions noted are these: inhibitory activity against GCS, 37° C., 90 minutes. In a few lines: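 Percent GCS activity was derived from the GlcCer share of Cer plus GlcCer areas, scaled from ibiglustat (0%) to DMSO (100%). Enzyme came from sonicated A549 lysate in 50 mM HEPES pH 7.3; 90 min incubation at 37° C, chloroform/methanol stop and extraction.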

Experiment [2] has as its system GM1 production in Jurkat cells. Description: cells. It counts as cell-based. As to conditions: Homo sapiens, Jurkat, 72 h.

Structures are written as SMILES.

As a reminder, the IC50 is the midpoint of a concentration-inhibition curve. Read a low IC50 as higher potency. With `O=C(NC1CCOc2cc(-c3cnn(Cc4ccccc4)c3)ccc21)O[C@@H]1CN2CCC1CC2` (stereo partly drawn) [Example 72, (S)-quinuclidin-3-yl (7-(1-benzyl-1H-pyrazol-4-yl)chroman-4-yl)carbamate], the IC50 in experiment [1] stood at 0.92 nM; in experiment [2] it was 12.8 nM.

On to `O=C(NC1CCOc2cc(-c3ccc(C4CCOCC4)cc3)ccc21)O[C@@H]1CN2CCC1CC2` (stereo partly drawn) [Example 73, (S)-quinuclidin-3-yl (7-(4-(tetrahydro-2H-pyran-4-yl)phenyl)chroman-4-yl)carbamate], for which the IC50 in experiment [1] was 1.47 nM; in experiment [2], 28.2 nM.

Consider `CN1C(=O)COc2ccc(-c3ccc4c(c3)OCCC4NC(=O)O[C@@H]3CN4CCC3CC4)cc21` (stereo partly drawn) [Example 74, (S)-quinuclidin-3-yl (7-(4-methyl-3-oxo-3,4-dihydro-2H-benzo[b][1,4]oxazin-6-yl)chroman-4-yl)carbamate], for which the IC50 in experiment [1] came out at 5.03 nM; in experiment [2], 44.3 nM.

On to `Cc1cc(-c2ccc3c(c2)OCCC3NC(=O)O[C@@H]2CN3CCC2CC3)ccc1N1CCOCC1` (stereo partly drawn) [Example 75, (S)-quinuclidin-3-yl (7-(3-methyl-4-morpholinophenyl)chroman-4-yl)carbamate], for which the IC50 in experiment [1] stood at 2.44 nM; in experiment [2] it was 23.6 nM.

On to `O=C(NC1CCOc2cc(-c3ccc(N4CCOCC4)c(Cl)c3)ccc21)O[C@@H]1CN2CCC1CC2` (stereo partly drawn) [Example 76, (S)-quinuclidin-3-yl (7-(3-chloro-4-morpholinophenyl)chroman-4-yl)carbamate], for which the IC50 in experiment [1] worked out at 1.94 nM; in experiment [2], 29.2 nM.

Take `O=C(NC1CCOc2cc(-c3ccc(N4CCOCC4)c(F)c3)ccc21)O[C@@H]1CN2CCC1CC2` (stereo partly drawn) [Example 77, (S)-quinuclidin-3-yl (7-(3-fluoro-4-morpholinophenyl)chroman-4-yl)carbamate]: the IC50 in experiment [1] was found to be 3.33 nM; in experiment [2] it was 28.7 nM.

Take `Cc1ccc(-c2ccc3c(c2)OCCC3NC(=O)O[C@@H]2CN3CCC2CC3)cc1C#N` (stereo partly drawn) [Example 78, (S)-quinuclidin-3-yl (7-(3-cyano-4-methylphenyl)chroman-4-yl)carbamate]: the results for the concentration for half-maximal inhibition (IC50) in experiment [1] and in experiment [2] were 1.26 nM and 27.3 nM, respectively.

Turning to `COc1cncc(-c2ccc3c(c2)OCCC3NC(=O)O[C@@H]2CN3CCC2CC3)c1` (stereo partly drawn) [Example 79, (S)-quinuclidin-3-yl (7-(5-methoxypyridin-3-yl)chroman-4-yl)carbamate], the IC50 in experiment [1] is 2.57 nM; in experiment [2] it was 33.4 nM.

In the case of `COc1ncc(-c2ccc3c(c2)OCCC3NC(=O)O[C@@H]2CN3CCC2CC3)cc1Cl` (stereo partly drawn) [Example 80, (S)-quinuclidin-3-yl (7-(5-chloro-6-methoxypyridin-3-yl)chroman-4-yl)carbamate], the IC50 is 5.75 nM in experiment [1] and 44.2 nM in experiment [2].

`O=C(NC1CCOc2cc(-c3ccc(OCC4CC4)nc3)ccc21)O[C@@H]1CN2CCC1CC2` (stereo partly drawn) [Example 81, (S)-quinuclidin-3-yl (7-(6-(cyclopropylmethoxy)pyridin-3-yl)chroman-4-yl)carbamate]: the IC50 in experiment [1] is 0.94 nM; in experiment [2], 14.8 nM.

For `CC(C)Oc1ccc(-c2ccc3c(c2)OCCC3NC(=O)O[C@@H]2CN3CCC2CC3)cc1Cl` (stereo partly drawn) [Example 82, (S)-quinuclidin-3-yl (7-(3-chloro-4-isopropoxyphenyl)chroman-4-yl)carbamate], the IC50 in experiment [1] was found to be 2.86 nM; in experiment [2] it was 7 nM.

Consider `COc1ccc(-c2ccc3c(c2)OCCC3NC(=O)O[C@@H]2CN3CCC2CC3)cc1C(F)(F)F` (stereo partly drawn) [Example 83, (S)-quinuclidin-3-yl (7-(4-methoxy-3-(trifluoromethyl)phenyl)chroman-4-yl)carbamate], for which the IC50 was 3.93 nM in experiment [1] and 19.6 nM in experiment [2].

As to `COc1cccc(OC)c1-c1ccc2c(c1)OCCC2NC(=O)O[C@@H]1CN2CCC1CC2` (stereo partly drawn) [Example 84, (S)-quinuclidin-3-yl (7-(2,6-dimethoxyphenyl)chroman-4-yl)carbamate], the IC50 in experiment [1] is 2.79 nM; in experiment [2] it was 7.18 nM.

`O=C(NC1CCOc2ccc(-c3ccc(F)cc3)cc21)O[C@@H]1CN2CCC1CC2` (stereo partly drawn) [Example 85, (S)-quinuclidin-3-yl (6-(4-fluorophenyl)chroman-4-yl)carbamate]: the IC50 in experiment [1] was determined as 9.67 nM; in experiment [2], 222 nM.

In the case of `O=C(NC1CCOc2ccc(-c3cccc(F)c3)cc21)O[C@@H]1CN2CCC1CC2` (stereo partly drawn) [Example 86, (S)-quinuclidin-3-yl (6-(3-fluorophenyl)chroman-4-yl)carbamate], the IC50 in experiment [1] is 9.68 nM; in experiment [2] it was 181 nM.

As for `O=C(NC1CCOc2ccc(-c3ccccc3F)cc21)O[C@@H]1CN2CCC1CC2` (stereo partly drawn) [Example 87, (S)-quinuclidin-3-yl (6-(2-fluorophenyl)chroman-4-yl)carbamate], the IC50 amounted to 3.57 nM in experiment [1] and 98.7 nM in experiment [2].

Regarding `O=C(NC1CCOc2ccc(-c3ccc(Cl)cc3)cc21)O[C@@H]1CN2CCC1CC2` (stereo partly drawn) [Example 88, (S)-quinuclidin-3-yl (6-(4-chlorophenyl)chroman-4-yl)carbamate], the IC50 was 9.41 nM in experiment [1] and 160 nM in experiment [2].

Regarding `O=C(NC1CCOc2ccc(-c3cccc(Cl)c3)cc21)O[C@@H]1CN2CCC1CC2` (stereo partly drawn) [Example 89, (S)-quinuclidin-3-yl (6-(3-chlorophenyl)chroman-4-yl)carbamate], the IC50 amounted to 6.63 nM in experiment [1] and 216 nM in experiment [2].

On to `O=C(NC1CCOc2ccc(-c3ccccc3Cl)cc21)O[C@@H]1CN2CCC1CC2` (stereo partly drawn) [Example 90, (S)-quinuclidin-3-yl (6-(2-chlorophenyl)chroman-4-yl)carbamate], for which the IC50 in experiment [1] turned out to be 4.27 nM; in experiment [2], 141 nM.

With `O=C(NC1CCOc2ccc(-c3ccc(C(F)(F)F)cc3)cc21)O[C@@H]1CN2CCC1CC2` (stereo partly drawn) [Example 91, (S)-quinuclidin-3-yl (6-(4-(trifluoromethyl)phenyl)chroman-4-yl)carbamate], the IC50 worked out at 5.38 nM in experiment [1] and 171 nM in experiment [2].

With `O=C(NC1CCOc2ccc(-c3cccc(C(F)(F)F)c3)cc21)O[C@@H]1CN2CCC1CC2` (stereo partly drawn) [Example 92, (S)-quinuclidin-3-yl (6-(3-(trifluoromethyl)phenyl)chroman-4-yl)carbamate], the IC50 in experiment [1] was 29.6 nM; in experiment [2] it was 495 nM.

As for `O=C(NC1CCOc2ccc(-c3ccccc3C(F)(F)F)cc21)O[C@@H]1CN2CCC1CC2` (stereo partly drawn) [Example 93, (S)-quinuclidin-3-yl (6-(2-(trifluoromethyl)phenyl)chroman-4-yl)carbamate], the IC50 is 4.25 nM in experiment [1] and 79.8 nM in experiment [2].

For `O=C(NC1CCOc2ccc(-c3ccc(OC(F)(F)F)cc3)cc21)O[C@@H]1CN2CCC1CC2` (stereo partly drawn) [Example 94, (S)-quinuclidin-3-yl (6-(4-(trifluoromethoxy)phenyl)chroman-4-yl)carbamate], the IC50 turned out to be 8.13 nM in experiment [1] and 408 nM in experiment [2].

With `O=C(NC1CCOc2ccc(-c3cccc(OC(F)(F)F)c3)cc21)O[C@@H]1CN2CCC1CC2` (stereo partly drawn) [Example 95, (S)-quinuclidin-3-yl (6-(3-(trifluoromethoxy)phenyl)chroman-4-yl)carbamate], the IC50 in experiment [1] is 19.8 nM; in experiment [2], 513 nM.

Turning to `O=C(NC1CCOc2ccc(-c3ccccc3OC(F)(F)F)cc21)O[C@@H]1CN2CCC1CC2` (stereo partly drawn) [Example 96, (S)-quinuclidin-3-yl (6-(2-(trifluoromethoxy)phenyl)chroman-4-yl)carbamate], the IC50 in experiment [1] was determined as 8.55 nM; in experiment [2] it was 78.9 nM.

On to `CSc1ccc(-c2ccc3c(c2)C(NC(=O)O[C@@H]2CN4CCC2CC4)CCO3)cc1` (stereo partly drawn) [Example 97, (S)-quinuclidin-3-yl (6-(4-(methylthio)phenyl)chroman-4-yl)carbamate], for which the IC50 worked out at 11.5 nM in experiment [1] and 502 nM in experiment [2].

As for `CSc1cccc(-c2ccc3c(c2)C(NC(=O)O[C@@H]2CN4CCC2CC4)CCO3)c1` (stereo partly drawn) [Example 98, (S)-quinuclidin-3-yl (6-(3-(methylthio)phenyl)chroman-4-yl)carbamate], the IC50 in experiment [1] turned out to be 14.9 nM; in experiment [2], 525 nM.

As to `Cc1ccc(-c2ccc3c(c2)C(NC(=O)O[C@@H]2CN4CCC2CC4)CCO3)cc1` (stereo partly drawn) [Example 99, (S)-quinuclidin-3-yl (6-(p-tolyl)chroman-4-yl)carbamate], the IC50 in experiment [1] amounted to 19.2 nM; in experiment [2] it was 322 nM.

For `N#Cc1ccc(-c2ccc3c(c2)C(NC(=O)O[C@@H]2CN4CCC2CC4)CCO3)cc1` (stereo partly drawn) [Example 100, (S)-quinuclidin-3-yl (6-(4-cyanophenyl)chroman-4-yl)carbamate], the IC50 in experiment [1] came to 7.1 nM; in experiment [2] it was 289 nM.

`CC1(C)COc2ccc(-c3cccc(F)c3)cc2C1NC(=O)O[C@@H]1CN2CCC1CC2` (stereo partly drawn) [Example 101, (S)-quinuclidin-3-yl (6-(3-fluorophenyl)-3,3-dimethylchroman-4-yl)carbamate]: the IC50 was determined as 9.2 nM in experiment [1] and 65.9 nM in experiment [2].

Take `CC1(C)COc2cc(-c3cccc(F)c3)ccc2C1NC(=O)O[C@@H]1CN2CCC1CC2` (stereo partly drawn) [Example 102, (S)-quinuclidin-3-yl (7-(3-fluorophenyl)-3,3-dimethylchroman-4-yl)carbamate]: the IC50 in experiment [1] amounted to 0.8 nM; in experiment [2] it was 2.81 nM.

With `CC1(C)COc2cc(-c3cccc(Cl)c3)ccc2C1NC(=O)O[C@@H]1CN2CCC1CC2` (stereo partly drawn) [Example 103, (S)-quinuclidin-3-yl (7-(3-chlorophenyl)-3,3-dimethylchroman-4-yl)carbamate], the IC50 was 1 nM in experiment [1] and 1.43 nM in experiment [2].
